Patent US20250311727A1, “SUBSTITUTED 2-AMINOAZINES AND SALTS THEREOF, AND USE THEREOF AS HERBICIDAL ACTIVE SUBSTANCES” (BAYER AKTIENGESELLSCHAFT, priority 2022, published 2025)

How the values were obtained:
Format in all cases: in vivo
Abutilon theophrasti [1] = experiment: Post-emergence herbicidal efficacy at 80 g/ha, ABUTH; settings: rated visually after about 3 weeks vs untreated controls, 100% = plants have died
Text: (§1) Unwanted plants/weeds: • ABUTH: Abutilon theophrasti • ALOMY: Alopecurus myosuroides • AMARE: Amaranthus retroflexus • DIGSA: Digitaria sanguinalis • ECHCG: Echinochloa crus-galli • KCHSC: Kochia scoparia • LOLRI: Lolium rigidum • MATIN: Matricaria inodora • POAAN: Poa annua • POLCO: Polygonum convolvulus • SETVI: Setaria viridis • STEME: Stellaria media • VERPE: Veronica persica • VIOTR: Viola tricolor A. Post-Emergence Herbicidal Efficacy at 320 g/ha
(§2) Seeds of monocotyledonous and dicotyledonous weeds and crop plants were placed in sandy loam in plastic or organic planting pots, covered with soil and cultivated in a greenhouse under controlled growth conditions. 2 to 3 weeks after sowing, the test plants were treated at the one-leaf stage. The compounds of the invention, formulated in the form of wettable powders (WP) or as emulsion concentrates (EC), were then sprayed onto the green parts of the plants as aqueous suspension or emulsion with addition of 0.5% additive at a water application rate of 600 l/ha (converted). After the test plants had been kept in the greenhouse under optimum growth conditions for about 3 weeks, the activity of the preparations was rated visually in comparison to untreated controls. For example, 100% activity=the plants have died, 0% activity=like control plants.
(§3) Tables B1 to B11 below show the effects of selected compounds of the general formula (I) according to Table 1 on various harmful plants and an application rate corresponding to 80 g/ha, which were obtained by the experimental procedure mentioned above.

Amaranthus retroflexus [2] = experiment: Post-emergence herbicidal efficacy at 80 g/ha, AMARE; settings: rated visually after about 3 weeks vs untreated controls, 100% = plants have died
Procedure, shortened: (§4)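 Visual rating against untreated plants, about 3 weeks after treatment, on a 0–100% scale where 100% means dead plants. Compounds were formulated as WP or EC with 0.5% additive and applied at 600 l/ha water onto one-leaf-stage greenhouse weeds, sown 2–3 weeks earlier in sandy loam.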

Digitaria sanguinalis [3] = experiment: Post-emergence herbicidal efficacy at 80 g/ha, DIGSA; settings: rated visually after about 3 weeks vs untreated controls, 100% = plants have died
Text: as §1, §2, §3

Echinochloa crus-galli [4] = experiment: Post-emergence herbicidal efficacy at 80 g/ha, ECHCG; settings: rated visually after about 3 weeks vs untreated controls, 100% = plants have died
Text: as §1, §2, §3

Kochia scoparia [5] = experiment: Post-emergence herbicidal efficacy at 80 g/ha, KCHSC; settings: rated visually after about 3 weeks vs untreated controls, 100% = plants have died
Procedure, shortened: as §4

PHBPU = experiment: Post-emergence herbicidal efficacy at 80 g/ha, PHBPU; settings: rated visually after about 3 weeks vs untreated controls, 100% = plants have died
Experimental: as §2, with “plants. Tables B1 to B11 below show the effects of selected compounds of the general formula (I) according to Table 1 on various harmful plants and an application rate corresponding to 80 g/ha, which were obtained by the experimental procedure mentioned above.” for “plants.”

Polygonum convolvulus [6] = experiment: Post-emergence herbicidal efficacy at 80 g/ha, POLCO; settings: rated visually after about 3 weeks vs untreated controls, 100% = plants have died
Text: as §1
as §2, with “plants. […]” for “plants.”

Setaria viridis [7] = experiment: Post-emergence herbicidal efficacy at 80 g/ha, SETVI; settings: rated visually after about 3 weeks vs untreated controls, 100% = plants have died
Text: as §1, §2, §3

Veronica persica [8] = experiment: Post-emergence herbicidal efficacy at 80 g/ha, VERPE; settings: rated visually after about 3 weeks vs untreated controls, 100% = plants have died
Procedure, shortened: as §4

Viola tricolor [9] = experiment: Post-emergence herbicidal efficacy at 80 g/ha, VIOTR; settings: rated visually after about 3 weeks vs untreated controls, 100% = plants have died
Procedure, shortened: as §4

Abutilon theophrasti [10] = experiment: Pre-emergence herbicide efficacy at 80 g/ha, ABUTH; settings: scored visually after about 3 weeks vs untreated controls, 100% = plants have died
Text: as §1
(§5) Seeds of monocotyledonous and dicotyledonous weed plants and crop plants were placed in plastic or organic planting pots and covered with soil. The compounds of the invention, formulated in the form of wettable powders (WP) or as emulsion concentrates (EC), were then applied to the surface of the covering soil as aqueous suspension or emulsion with addition of 0.5% additive at a water application rate equivalent to 600 l/ha. After the treatment, the pots were placed in a greenhouse and kept under good growth conditions for the test plants. After about 3 weeks, the efficacy of the preparations was scored visually in comparison with untreated controls as percentages. For example, 100% activity=the plants have died, 0% activity=like control plants.
(§6) Tables D1 to D12 below show the effects of selected compounds of the general formula (I) according to Table 1 on various harmful plants and an application rate corresponding to 80 g/ha, which were obtained by the experimental procedure mentioned above.

Alopecurus myosuroides = experiment: Pre-emergence herbicide efficacy at 80 g/ha, ALOMY; settings: scored visually after about 3 weeks vs untreated controls, 100% = plants have died
Text: as §1, §5, §6

Amaranthus retroflexus [11] = experiment: Pre-emergence herbicide efficacy at 80 g/ha, AMARE; settings: scored visually after about 3 weeks vs untreated controls, 100% = plants have died
Procedure, shortened: (§7)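 Visual % activity scored after roughly 3 weeks in the greenhouse against untreated pots, 100% meaning dead plants and 0% like controls. Treatment was soil-surface application right after sowing, at 80 g/ha. Formulated as WP or EC in water at 600 l/ha with 0.5% additive.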

Digitaria sanguinalis [12] = experiment: Pre-emergence herbicide efficacy at 80 g/ha, DIGSA; settings: scored visually after about 3 weeks vs untreated controls, 100% = plants have died
Procedure, shortened: as §7

Echinochloa crus-galli [13] = experiment: Pre-emergence herbicide efficacy at 80 g/ha, ECHCG; settings: scored visually after about 3 weeks vs untreated controls, 100% = plants have died
Text: as §1, §5, §6

Lolium rigidum = experiment: Pre-emergence herbicide efficacy at 80 g/ha, LOLRI; settings: scored visually after about 3 weeks vs untreated controls, 100% = plants have died
Text: as §1
as §5, with “control plants. […]” for “control plants.”

Kochia scoparia [14] = experiment: Pre-emergence herbicide efficacy at 80 g/ha, KCHSC; settings: scored visually after about 3 weeks vs untreated controls, 100% = plants have died
Procedure, shortened: as §7

Matricaria inodora = experiment: Pre-emergence herbicide efficacy at 80 g/ha, MATIN; settings: scored visually after about 3 weeks vs untreated controls, 100% = plants have died
Text: as §1, §5, §6

Polygonum convolvulus [15] = experiment: Pre-emergence herbicide efficacy at 80 g/ha, POLCO; settings: scored visually after about 3 weeks vs untreated controls, 100% = plants have died
Procedure, shortened: as §7

Setaria viridis [16] = experiment: Pre-emergence herbicide efficacy at 80 g/ha, SETVI
Procedure, shortened: as §7

Veronica persica [17] = experiment: Pre-emergence herbicide efficacy at 80 g/ha, VERPE
Procedure, shortened: as §7

Viola tricolor [18] = experiment: Pre-emergence herbicide efficacy at 80 g/ha, VIOTR
Procedure, shortened: as §7

With `FC(F)c1cc(-c2c(Cl)cccc2Nc2ncc(Cl)cn2)on1` [Example 1-61] the “Post-emergence efficacy at 80 g/ha against ABUTH in %” value (Abutilon theophrasti [1]) was 100%, the “Post-emergence efficacy at 80 g/ha against AMARE in %” value (Amaranthus retroflexus [2]) was 100% and the “Post-emergence efficacy at 80 g/ha against DIGSA in %” value (Digitaria sanguinalis [3]) was 100%. For the same compound, the “Post-emergence efficacy at 80 g/ha against ECHCG in %” value (Echinochloa crus-galli [4]) was 100%, the “Post-emergence efficacy at 80 g/ha against KCHSC in %” value (Kochia scoparia [5]) was 100% and the “Post-emergence efficacy at 80 g/ha against PHBPU in %” value (PHBPU) was 100%. For the same compound, the “Post-emergence efficacy at 80 g/ha against POLCO in %” value (Polygonum convolvulus [6]) was 100%, the “Post-emergence efficacy at 80 g/ha against SETVI in %” value (Setaria viridis [7]) was 100% and the “Post-emergence efficacy at 80 g/ha against VERPE in %” value (Veronica persica [8]) was 100%. For the same compound, the “Post-emergence efficacy at 80 g/ha against VIOTR in %” value (Viola tricolor [9]) was 100%, the “Pre-emergence efficacy at 80 g/ha against ABUTH in %” value (Abutilon theophrasti [10]) was 90% and the “Pre-emergence efficacy at 80 g/ha against ALOMY in %” value (Alopecurus myosuroides) was 90%. For the same compound, the “Pre-emergence efficacy at 80 g/ha against AMARE in %” value (Amaranthus retroflexus [11]) was 100%, the “Pre-emergence efficacy at 80 g/ha against DIGSA in %” value (Digitaria sanguinalis [12]) was 100% and the “Pre-emergence efficacy at 80 g/ha against ECHCG in %” value (Echinochloa crus-galli [13]) was 100%. The “Pre-emergence efficacy at 80 g/ha against LOLRI in %” value (Lolium rigidum) was 90%, the “Pre-emergence efficacy at 80 g/ha against KCHSC in %” value (Kochia scoparia [14]) was 100% and the “Pre-emergence efficacy at 80 g/ha against MATIN in %” value (Matricaria inodora) was 100%. The “Pre-emergence efficacy at 80 g/ha against POLCO in %” value (Polygonum convolvulus [15]) was 80%, the “Pre-emergence efficacy against SETVI” value (Setaria viridis [16]) was 100% and the “Pre-emergence efficacy against VERPE” value (Veronica persica [17]) was 90%. For the same compound, the “Pre-emergence efficacy against VIOTR” value (Viola tricolor [18]) was 100%.
